Data from ChEMBL document CHEMBL5126546, “Advancements in the development of multi-target directed ligands for the treatment of Alzheimer's disease” (Bioorg Med Chem, 2022).
Values belong to the compound of their own block, whether it stands above or below them.

Columns and labels:
[1] = target: T1, Amyloid-beta precursor protein (Homo sapiens, UniProt P05067); experiment: Inhibition of self-induced amyloid beta (1 to 42) (unknown origin) disaggregation at 25 uM
[2] = target: T1, Amyloid-beta precursor protein; experiment: Inhibition of self-induced amyloid beta (1 to 42) (unknown origin) aggregation at 25 uM
[3] = target: T2, Cholinesterase (Homo sapiens, UniProt P06276); experiment: Inhibition of BuChE (unknown origin)
T2 sequence (P06276 whole entry): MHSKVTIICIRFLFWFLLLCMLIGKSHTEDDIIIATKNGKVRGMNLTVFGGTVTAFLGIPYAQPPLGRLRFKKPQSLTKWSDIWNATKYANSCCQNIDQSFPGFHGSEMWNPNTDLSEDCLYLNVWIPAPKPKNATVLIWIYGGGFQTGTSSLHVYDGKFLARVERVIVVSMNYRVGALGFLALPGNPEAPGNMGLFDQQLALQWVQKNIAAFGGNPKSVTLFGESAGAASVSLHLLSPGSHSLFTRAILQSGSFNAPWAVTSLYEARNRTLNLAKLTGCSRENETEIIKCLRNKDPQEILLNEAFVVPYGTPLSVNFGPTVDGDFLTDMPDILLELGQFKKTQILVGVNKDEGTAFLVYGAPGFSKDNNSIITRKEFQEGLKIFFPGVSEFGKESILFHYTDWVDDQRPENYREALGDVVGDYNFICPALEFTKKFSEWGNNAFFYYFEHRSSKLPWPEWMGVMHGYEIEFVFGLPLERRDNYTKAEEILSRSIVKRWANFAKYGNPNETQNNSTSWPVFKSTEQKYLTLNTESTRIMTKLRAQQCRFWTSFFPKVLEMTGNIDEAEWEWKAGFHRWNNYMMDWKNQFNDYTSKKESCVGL

[4] = target: T1, Amyloid-beta precursor protein; experiment: Inhibition of amyloid beta (1 to 42) (unknown origin) self aggregation at 100 uM and measured after 24 hrs by Thioflavin T based fluorometric assay
[5] = target: T1, Amyloid-beta precursor protein; experiment: Inhibition of self induced amyloid beta (1 to 42) (unknown origin) aggregation incubated for 24 hrs by Thioflavin T based fluorometric assay
[6] = target: T3, Cholinesterase (Equus caballus, UniProt P81908); experiment: Inhibition of horse serum BuChE using butyrylthiocholine chloride as substrate by spectrophotometric based Ellman's method
T3 sequence (P81908 whole entry): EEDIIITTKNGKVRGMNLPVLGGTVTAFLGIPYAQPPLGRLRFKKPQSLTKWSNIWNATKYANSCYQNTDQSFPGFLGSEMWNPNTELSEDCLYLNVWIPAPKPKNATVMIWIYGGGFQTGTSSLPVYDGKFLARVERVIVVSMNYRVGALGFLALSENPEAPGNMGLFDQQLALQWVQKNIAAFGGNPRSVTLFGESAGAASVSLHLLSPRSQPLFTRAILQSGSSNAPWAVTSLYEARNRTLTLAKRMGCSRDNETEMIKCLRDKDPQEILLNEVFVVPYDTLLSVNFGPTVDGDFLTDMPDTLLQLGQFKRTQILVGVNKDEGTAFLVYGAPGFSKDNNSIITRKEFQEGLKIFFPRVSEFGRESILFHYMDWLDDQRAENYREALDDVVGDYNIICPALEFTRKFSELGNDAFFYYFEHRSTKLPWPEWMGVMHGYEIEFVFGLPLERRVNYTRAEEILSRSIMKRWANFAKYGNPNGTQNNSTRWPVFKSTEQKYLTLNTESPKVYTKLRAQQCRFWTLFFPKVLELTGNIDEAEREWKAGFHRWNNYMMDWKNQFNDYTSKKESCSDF

[7] = target: T4, Acetylcholinesterase (Electrophorus electricus, UniProt O42275); experiment: Inhibition of electric eel AChE using acetylthiocholine iodide as substrate by spectrophotometric based Ellman's method
T4 sequence (O42275 whole entry): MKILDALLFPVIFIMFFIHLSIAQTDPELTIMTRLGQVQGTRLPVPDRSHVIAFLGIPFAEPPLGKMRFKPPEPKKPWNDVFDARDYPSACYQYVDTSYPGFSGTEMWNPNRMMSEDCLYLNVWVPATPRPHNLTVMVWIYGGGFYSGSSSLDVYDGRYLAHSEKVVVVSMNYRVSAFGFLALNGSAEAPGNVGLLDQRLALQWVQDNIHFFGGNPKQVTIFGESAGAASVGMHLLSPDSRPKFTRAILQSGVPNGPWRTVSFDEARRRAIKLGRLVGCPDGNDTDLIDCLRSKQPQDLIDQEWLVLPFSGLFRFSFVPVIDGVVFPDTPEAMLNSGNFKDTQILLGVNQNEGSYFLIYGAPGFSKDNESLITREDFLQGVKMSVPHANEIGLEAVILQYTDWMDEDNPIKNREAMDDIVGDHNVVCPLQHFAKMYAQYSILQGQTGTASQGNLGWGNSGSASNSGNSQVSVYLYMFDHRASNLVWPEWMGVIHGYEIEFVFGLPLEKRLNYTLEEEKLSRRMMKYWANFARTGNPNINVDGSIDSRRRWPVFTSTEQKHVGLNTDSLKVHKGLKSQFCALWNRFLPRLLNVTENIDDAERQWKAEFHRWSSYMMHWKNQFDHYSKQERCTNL

[8] = target: T5, Amine oxidase [flavin-containing] B (Homo sapiens, UniProt P27338); experiment: Inhibition of recombinant human MAO-B using p-tyramine as substrate preincubated for 15 mins followed by substrate addition and measured after 30 mins by Amplex Red reagent based fluorometric analysis
T5 sequence (P27338 whole entry): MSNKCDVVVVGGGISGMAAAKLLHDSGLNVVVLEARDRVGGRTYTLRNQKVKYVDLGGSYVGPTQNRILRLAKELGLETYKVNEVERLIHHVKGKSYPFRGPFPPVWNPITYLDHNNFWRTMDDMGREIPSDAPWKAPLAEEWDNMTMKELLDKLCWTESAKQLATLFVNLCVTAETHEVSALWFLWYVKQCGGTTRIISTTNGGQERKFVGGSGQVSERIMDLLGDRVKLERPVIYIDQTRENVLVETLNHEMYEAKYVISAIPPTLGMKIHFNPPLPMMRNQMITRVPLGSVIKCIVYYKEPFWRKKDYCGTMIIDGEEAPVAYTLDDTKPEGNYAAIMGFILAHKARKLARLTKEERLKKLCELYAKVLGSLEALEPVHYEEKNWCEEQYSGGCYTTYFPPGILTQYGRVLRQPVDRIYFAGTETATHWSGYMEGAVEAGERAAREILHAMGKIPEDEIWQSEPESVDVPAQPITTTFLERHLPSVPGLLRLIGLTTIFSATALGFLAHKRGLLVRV

[9] = target: T6, Amine oxidase [flavin-containing] A (Homo sapiens, UniProt P21397); experiment: Inhibition of recombinant human MAO-A using p-tyramine as substrate preincubated for 15 mins followed by substrate addition and measured after 30 mins by Amplex Red reagent based fluorometric analysis
T6 sequence (P21397 whole entry): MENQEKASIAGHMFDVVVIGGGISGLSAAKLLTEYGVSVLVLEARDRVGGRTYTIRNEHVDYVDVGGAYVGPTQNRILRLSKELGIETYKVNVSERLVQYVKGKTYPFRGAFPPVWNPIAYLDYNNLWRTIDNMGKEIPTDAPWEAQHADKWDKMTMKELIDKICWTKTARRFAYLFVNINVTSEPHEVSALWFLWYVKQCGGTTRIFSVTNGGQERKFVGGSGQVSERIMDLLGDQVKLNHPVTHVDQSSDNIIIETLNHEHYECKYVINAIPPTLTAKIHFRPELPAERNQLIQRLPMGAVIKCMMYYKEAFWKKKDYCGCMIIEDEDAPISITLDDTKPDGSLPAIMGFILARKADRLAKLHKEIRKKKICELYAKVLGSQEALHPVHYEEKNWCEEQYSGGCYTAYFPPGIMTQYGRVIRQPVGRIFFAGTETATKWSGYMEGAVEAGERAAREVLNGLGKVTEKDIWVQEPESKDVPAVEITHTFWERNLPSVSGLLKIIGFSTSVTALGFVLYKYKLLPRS

[10] = target: T3, Cholinesterase; experiment: Inhibition of equine serum BuChE using butyrylthiocholine iodide as substrate preincubated for 5 mins followed by substrate addition and measured after 5 mins by Ellman's method
[11] = target: T4, Acetylcholinesterase; experiment: Inhibition of Electrophorus electricus AchE using acetylthiocholine iodide as substrate preincubated for 5 mins followed by substrate addition and measured after 5 mins by Ellman's method
[12] = target: T7, Gamma-secretase (Homo sapiens) (UniProt Q96BI3+Q9NZ42+Q8WW43+P49768+Q92542+P49810); experiment: Inhibition of gamma secretase in human H4 cells expressing human wild type APP assessed as reduction in amyloid beta 1-42 level at 100 uM for 12 hrs by ELISA; type: cell-based
[13] = target: T7, Gamma-secretase (Homo sapiens); experiment: Inhibition of gamma secretase in human H4 cells expressing human wild type APP assessed as reduction in amyloid beta 1-40 level at 100 uM for 12 hrs by ELISA; type: cell-based
[14] = target: T4, Acetylcholinesterase; experiment: Inhibition of Electrophorus electricus AchE using acetylthiocholine iodide as substrate preincubated for 15 mins followed by substrate addition and measured for 6 mins by DTNB reagent based Ellman's method
[15] = target: Fatty-acid amide hydrolase 1 (Homo sapiens, UniProt O00519); experiment: Inhibition of FAAH (unknown origin) using 7-amino-4-methylcoumarin-arachidonamide as substrate preincubated for 5 mins followed by substrate addition and measured after 30 mins by fluorescence based assay
[16] = target: T1, Amyloid-beta precursor protein; experiment: Inhibition of Cu2+ induced amyloid beta (1 to 42) (unknown origin) aggregation at 25 uM and measured after 24 hrs by Thioflavin T based fluorometric assay
[17] = system: Rattus norvegicus; experiment: Antiinflammatory activity in formalin induced Sprague-Dawley rat chronic inflammation model assessed as inhibition of paw edema at 50 mg/kg, po for 1 hr followed by formalin injection for 5 days relative to control; type: functional; design: scale not given: the % may be the effect or the level left; settings: time 5 day
[18] = target: T8, Beta-secretase 1 (Homo sapiens, UniProt P56817); experiment: Inhibition of recombinant human BACE-1 using MCA-SEVNLDAEFR-Ednp-KRR-NH2.3TFA as substrate incubated for 2 hrs by Varioskan-flash multimode plate reader analysis
T8 sequence (P56817 whole entry): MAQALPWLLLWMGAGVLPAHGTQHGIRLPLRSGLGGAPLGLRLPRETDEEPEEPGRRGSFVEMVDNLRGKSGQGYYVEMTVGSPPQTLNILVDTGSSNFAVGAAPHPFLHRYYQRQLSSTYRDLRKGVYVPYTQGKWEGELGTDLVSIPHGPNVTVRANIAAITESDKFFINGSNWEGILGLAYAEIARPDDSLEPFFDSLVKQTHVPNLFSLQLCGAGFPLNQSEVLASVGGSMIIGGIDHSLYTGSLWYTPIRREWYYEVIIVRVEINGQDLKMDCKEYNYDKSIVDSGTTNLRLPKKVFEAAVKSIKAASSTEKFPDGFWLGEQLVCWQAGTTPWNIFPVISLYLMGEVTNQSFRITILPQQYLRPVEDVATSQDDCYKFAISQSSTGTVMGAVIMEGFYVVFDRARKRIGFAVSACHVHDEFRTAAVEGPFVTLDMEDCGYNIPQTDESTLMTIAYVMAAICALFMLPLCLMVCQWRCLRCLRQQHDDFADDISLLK

[19] = system: Rattus norvegicus; experiment: Antiinflammatory activity in carrageenan induced Sprague-Dawley rat acute inflammation model assessed as inhibition of paw edema at 50 mg/kg, po for 1 hr followed by carrageenan injection snd measured after 3 hrs relative to control; type: functional; design: scale not given: the % may be the effect or the level left; settings: time 4 hrs
[20] = target: T8, Beta-secretase 1; experiment: Inhibition of BACE-1 (unknown origin)
[21] = system: SH-SY5Y; experiment: Cytotoxicity against human SH-SY5Y cells assessed as reduction in cell viability for 24 hrs by MTT assay; type: functional, cell-based
[22] = target: T9, Acetylcholinesterase (Homo sapiens, UniProt P22303); experiment: Inhibition of recombinant human AChE using acetylthiocholine iodide as substrate preincubated for 5 mins followed by substrate addition by Ellman's method
T9 sequence (P22303 whole entry): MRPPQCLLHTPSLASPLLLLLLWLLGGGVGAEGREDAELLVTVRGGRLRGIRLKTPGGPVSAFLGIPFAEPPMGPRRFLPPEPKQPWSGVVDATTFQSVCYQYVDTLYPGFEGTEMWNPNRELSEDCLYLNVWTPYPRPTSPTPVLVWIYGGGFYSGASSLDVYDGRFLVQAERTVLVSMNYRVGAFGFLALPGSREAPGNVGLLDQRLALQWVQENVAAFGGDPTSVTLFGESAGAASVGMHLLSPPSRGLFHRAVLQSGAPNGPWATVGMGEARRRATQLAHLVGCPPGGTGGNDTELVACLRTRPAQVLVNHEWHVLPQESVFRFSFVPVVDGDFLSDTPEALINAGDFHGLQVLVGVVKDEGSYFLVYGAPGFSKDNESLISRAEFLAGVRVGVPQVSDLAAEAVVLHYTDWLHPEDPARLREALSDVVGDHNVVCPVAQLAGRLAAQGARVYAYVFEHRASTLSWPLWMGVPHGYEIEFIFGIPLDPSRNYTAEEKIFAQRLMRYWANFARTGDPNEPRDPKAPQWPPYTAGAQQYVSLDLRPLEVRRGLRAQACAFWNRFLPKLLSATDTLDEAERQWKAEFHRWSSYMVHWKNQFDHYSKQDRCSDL

[23] = system: HepG2; experiment: Cytotoxicity against human HepG2 cells assessed as reduction in cell viability for 24 hrs by MTT assay; type: functional, cell-based; settings: HepG2, 24 h
[24] = target: T2, Cholinesterase; experiment: Inhibition of recombinant human BuChE using butyrylthiocholine iodide as substrate preincubated for 5 mins followed by substrate addition by Ellman's method
[25] = target: Glutamate [NMDA] receptor; experiment: Inhibition of NMDA receptor (unknown origin); type: protein-complex assay, Homo sapiens
[26] = target: Glutamate receptor ionotropic AMPA (Homo sapiens, UniProt P42261+P42262+P42263+P48058); experiment: Inhibition of AMPA receptor (unknown origin); type: protein-complex assay
[27] = target: T9, Acetylcholinesterase; experiment: Inhibition of recombinant human AChE using acetylthiocholine as substrate by Ellman's method
[28] = Antioxidant activity of compound assessed as trolox equivalent of ORAC radical scavenging activity by ORAC-FL assay; type: functional
[29] = target: T2, Cholinesterase; experiment: Inhibition of BuChE (unknown origin) incubated for 15 mins by Ellman's method
[30] = target: T6, Amine oxidase [flavin-containing] A; experiment: Inhibition of recombinant human MAO-A assessed as amount of 4-hydroxyquinoline using kynuramine as a substrate incubated for 30 mins by fluorescence spectrophotometry
[31] = target: T5, Amine oxidase [flavin-containing] B; experiment: Inhibition of recombinant human MAO-B assessed as amount of 4-hydroxyquinoline using kynuramine as a substrate incubated for 30 mins by fluorescence spectrophotometry
[32] = target: T4, Acetylcholinesterase; experiment: Inhibition of Electrophorus electricus AchE incubated for 15 mins by Ellman's method

T1 sequence (P05067 whole entry): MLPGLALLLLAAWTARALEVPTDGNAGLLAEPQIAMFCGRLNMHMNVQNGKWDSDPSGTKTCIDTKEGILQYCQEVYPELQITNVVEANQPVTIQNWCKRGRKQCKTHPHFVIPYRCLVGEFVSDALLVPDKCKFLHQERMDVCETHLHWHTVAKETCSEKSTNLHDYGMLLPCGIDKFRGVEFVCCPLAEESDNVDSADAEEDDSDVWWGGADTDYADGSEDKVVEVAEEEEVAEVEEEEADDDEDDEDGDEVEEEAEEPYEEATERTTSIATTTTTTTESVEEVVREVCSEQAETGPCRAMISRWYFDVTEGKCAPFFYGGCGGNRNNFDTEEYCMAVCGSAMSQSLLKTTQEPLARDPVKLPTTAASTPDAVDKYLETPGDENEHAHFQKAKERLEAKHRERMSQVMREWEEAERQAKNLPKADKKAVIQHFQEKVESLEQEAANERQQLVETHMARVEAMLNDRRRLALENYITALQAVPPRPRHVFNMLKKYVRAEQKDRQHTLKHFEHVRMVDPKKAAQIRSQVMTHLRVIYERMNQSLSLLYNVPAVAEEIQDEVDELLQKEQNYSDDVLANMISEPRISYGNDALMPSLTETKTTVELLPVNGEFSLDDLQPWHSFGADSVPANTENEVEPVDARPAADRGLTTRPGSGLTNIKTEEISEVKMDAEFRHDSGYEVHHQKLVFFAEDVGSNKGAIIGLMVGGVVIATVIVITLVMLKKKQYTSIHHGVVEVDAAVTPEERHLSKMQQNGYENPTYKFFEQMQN

SMILES: COc1cc(/C=C/C(=O)N2CCC(c3ncccn3)CC2)ccc1O
inhibition [1]: 53.1%
inhibition [2]: 61.1%
IC50 [3]: 3.4 µM

inhibition [4]: 96.9%
IC50 [5]: 8.06 µM
SMILES: CCOC(=O)C(Cc1cn(-c2ccccc2)nn1)(Cc1cn(-c2ccccc2)nn1)NC(C)=O

SMILES: O=C(N/N=C/Nc1c2c(nc3ccccc13)CCCC2)C12CC3CC(CC(C3)C1)C2
IC50 [6]: 0.615 µM
IC50 [7]: 6.77 µM

IC50 [8]: 9.91 µM
IC50 [9]: 18.3 µM
SMILES: C#CCOc1ccc(-c2cc(-c3ccc(OCCN4CCOCC4)cc3)nc(N)n2)cc1

SMILES: CCCN1CCN(c2ncc(CCN(C)CCCc3ccccc3)s2)CC1
IC50 [10]: 14.6 µM
IC50 [11]: 14 µM

inhibition [12]: 22%
inhibition [13]: 10%
SMILES: O=S(=O)(NC1C2CC3CC(C2)CC1C3)c1cccs1 (centres undefined)

inhibition [12]: 88%
inhibition [13]: 26%
SMILES: O=S(=O)(NC12CC3CC(CC(C3)C1)C2)C1CCCS1 (centres undefined)

SMILES: CCCCCCCNC(=O)Oc1cccc(CN(C)CCCCCOc2ccc3[nH]c(=O)ccc3c2)c1
IC50 [14]: 0.39 µM
IC50 [15]: 0.83 µM

inhibition [16]: 20.2%
SMILES: CCN(CC)Cc1ccc(/C=C/C(=O)c2ccc(OC)c(OC)c2)cc1O

IC50 [18]: 3 µM
SMILES: Cc1cc2nc(-c3cnc(N)s3)c(-c3cnc(N)s3)nc2cc1C
Activity [17]: 55%
Activity [19]: 69%

IC50 [20]: 20.2 µM
SMILES: O=C(OC1O[C@@H]2COC(=O)c3cc(O)c(O)c(O)c3-c3c(cc(O)c(O)c3O)C(=O)O[C@H]2[C@H](OC(=O)c2cc(O)c(O)c(O)c2)[C@H]1OC(=O)c1cc(O)c(O)c(O)c1)c1cc(O)c(O)c(O)c1 (some centres undefined) [TELLIMAGRANDIN II]

SMILES: COc1ccc2nc3c(c(N)c2c1)C1CC=CC(C3)C1 (centres undefined)
IC50 [21]: 17.8 µM
IC50 [22]: 2.63 µM
IC50 [23]: 14.9 µM
IC50 [24]: 3.76 µM

SMILES: NCCCCCCNC1(c2ccccc2)CCCCC1
IC50 [25]: 0.24 µM
IC50 [26]: 1.7 µM

SMILES: Clc1ccc2c(NCCCNCC34CC5CC(CC(C5)C3)C4)ccnc2c1
IC50 [27]: 0.5 µM

SMILES: CCN(CCCCOc1ccc(/C=C/C(=O)N2CCc3ccccc3C2)cc1OC)Cc1ccccc1
Activity [28]: 0.53 equiv
IC50 [29]: 8.9 µM
IC50 [30]: 6.3 µM
IC50 [31]: 8.6 µM
IC50 [32]: 12.1 µM
